For 16 molecules, T/C results are on record in PubChem BioAssay AID330 (DTP/NCI, 2004).

Where “and” joins values, the source holds several entries; their conditions need not be identical. Equal values may be shown once. Inconclusive results and toxic doses are left out.

In the test the test system is P388 leukemia ip, CD2F1 mice, survival T/C. In words: NCI In Vivo Anticancer Drug Screen. Data for tumor model P388 Leukemia (intraperitoneal) in CD2F1 (CDF1) mice. Conditions: endpoint: median survival time, higher = longer survival. A digest of the protocol: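 Mice carrying the transplanted tumor received test compound or vehicle. Survival was recorded in each group, and the value is the treated-group measurement divided by that of the vehicle-treated control group.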

Where [1] appears, read: dose: 50.0 mg/kg/injection, schedule: Q01DX005 (ip), vehicle: saline with Tween-80.
Setting [2] is: dose: 100.0 mg/kg/injection, schedule: Q01DX005 (ip), vehicle: saline with Tween-80.
Setting [3] is: dose: 50.0 mg/kg/injection, schedule: Q01DX009 (ip), vehicle: saline with Tween-80.
The mark [4] stands for this setting: dose: 100.0 mg/kg/injection, schedule: Q01DX009 (ip), vehicle: saline with Tween-80.
Setting [5] is: dose: 200.0 mg/kg/injection, schedule: Q01DX009 (ip), vehicle: saline with Tween-80.
Setting [6] is: dose: 50.0 mg/kg/injection, schedule: Q01DX005 (ip), vehicle: Klucel (hydroxypropylcellulose) (HPC).
Setting [7] is: dose: 100.0 mg/kg/injection, schedule: Q01DX005 (ip), vehicle: Klucel (hydroxypropylcellulose) (HPC).
The mark [8] stands for this setting: dose: 200.0 mg/kg/injection, schedule: Q01DX005 (ip), vehicle: Klucel (hydroxypropylcellulose) (HPC).
[9] abbreviates: dose: 25.0 mg/kg/injection, schedule: Q01DX005 (ip), vehicle: Klucel (hydroxypropylcellulose) (HPC).
Setting [10] is: dose: 60.0 mg/kg/injection, schedule: Q01DX005 (ip), vehicle: saline with Tween-80.
The mark [11] stands for this setting: dose: 120.0 mg/kg/injection, schedule: Q01DX005 (ip), vehicle: saline with Tween-80.
Setting [12] is: dose: 240.0 mg/kg/injection, schedule: Q01DX005 (ip), vehicle: saline with Tween-80.

Consider `C=C1C(=O)OC2C1C(OC(=O)/C(=C/CO)CO)CC1(CO1)C1CC=C(C)C21` (configuration not stated), for which the T/C is 111 % of control (dose: 0.94 mg/kg/injection, schedule: Q01DX005 (ip), vehicle: Klucel (hydroxypropylcellulose) (HPC)); 107 % of control (dose: 1.87 mg/kg/injection, schedule: Q01DX005 (ip), vehicle: Klucel (hydroxypropylcellulose) (HPC)); 108 % of control (dose: 3.75 mg/kg/injection, schedule: Q01DX005 (ip), vehicle: Klucel (hydroxypropylcellulose) (HPC)).
For the molecule `CSc1nnc2nc3c4ccccc4c4ccccc4c3nn12`, the T/C (dose: 50.0 mg/kg/injection, schedule: Q04DX002 (ip), vehicle: suspension in saline) was 100 % of control; the T/C (dose: 100.0 mg/kg/injection, schedule: Q04DX002 (ip), vehicle: suspension in saline) was 100 % of control; the T/C (dose: 200.0 mg/kg/injection, schedule: Q04DX002 (ip), vehicle: suspension in saline) was 98 % of control.
As to `[N-]=[N+]=CC(=O)CCC(N)C(=O)O` (configuration not stated), the T/C is, setting by setting: (dose: 0.04 mg/kg/injection, schedule: Q01DX009 (ip), vehicle: saline) 121 % of control; (dose: 0.05 mg/kg/injection, schedule: Q01DX009 (ip), vehicle: saline) 158 % of control; (dose: 0.08 mg/kg/injection, schedule: Q01DX005 (ip), vehicle: saline) 118 % of control; (dose: 0.08 mg/kg/injection, schedule: Q01DX005 (iv), vehicle: saline) 109 % of control; (dose: 0.08 mg/kg/injection, schedule: Q01DX009 (ip), vehicle: saline) 155 % of control; (dose: 0.1 mg/kg/injection, schedule: Q01DX009 (ip), vehicle: saline) 178 % of control. The T/C is 121 % of control (dose: 0.15 mg/kg/injection, schedule: Q01DX005 (ip), vehicle: saline); 110 % of control (dose: 0.15 mg/kg/injection, schedule: Q01DX005 (iv), vehicle: saline); 161 % of control and 171 % of control (dose: 0.15 mg/kg/injection, schedule: Q01DX009 (ip), vehicle: saline); 206 % of control (dose: 0.2 mg/kg/injection, schedule: Q01DX009 (ip), vehicle: saline); 112 % of control (dose: 0.3 mg/kg/injection, schedule: Q01DX005 (iv), vehicle: saline); 103 % of control and 105 % of control (dose: 0.3 mg/kg/injection, schedule: Q01DX009 (ip), vehicle: saline). Moreover, the T/C is 235 % of control (dose: 0.4 mg/kg/injection, schedule: Q01DX009 (ip), vehicle: saline); 153 % of control (dose: 0.6 mg/kg/injection, schedule: Q01DX005 (ip), vehicle: saline); 87 % of control (dose: 0.6 mg/kg/injection, schedule: Q01DX009 (ip), vehicle: saline); 94 % of control (dose: 0.8 mg/kg/injection, schedule: Q01DX009 (ip), vehicle: saline); 160 % of control (dose: 1.0 mg/kg/injection, schedule: Q04DX003 (ip), vehicle: saline); 158 % of control (dose: 2.0 mg/kg/injection, schedule: Q04DX003 (ip), vehicle: saline). Also, the T/C runs as follows: (dose: 4.0 mg/kg/injection, schedule: Q04DX003 (ip), vehicle: saline) 180 % of control; (dose: 8.0 mg/kg/injection, schedule: Q04DX003 (ip), vehicle: saline) 202 % of control; (dose: 16.0 mg/kg/injection, schedule: Q04DX003 (ip), vehicle: saline) 247 % of control; (dose: 54.0 micrograms/kg/injection, schedule: Q01DX009 (ip), vehicle: saline) 151 % of control and 158 % of control; (dose: 62.5 micrograms/kg/injection, schedule: Q01DX009 (ip), vehicle: saline) 160 % of control; (dose: 90.0 micrograms/kg/injection, schedule: Q01DX009 (ip), vehicle: saline) 166 % of control and 182 % of control. For the same molecule, the T/C runs as follows: (dose: 125.0 micrograms/kg/injection, schedule: Q01DX009 (ip), vehicle: saline) 190 % of control; (dose: 150.0 micrograms/kg/injection, schedule: Q01DX009 (ip), vehicle: saline) 188 % of control and 192 % of control; (dose: 250.0 micrograms/kg/injection, schedule: Q01DX009 (ip), vehicle: saline) 109 % of control and 208 % of control and 236 % of control; (dose: 417.0 micrograms/kg/injection, schedule: Q01DX009 (ip), vehicle: saline) 221 % of control and 90 % of control; (dose: 500.0 micrograms/kg/injection, schedule: Q01DX009 (ip), vehicle: saline) 94 % of control.
In the case of `O=S(OC(c1ccccc1)(C(F)(F)F)C(F)(F)F)OC(c1ccccc1)(C(F)(F)F)C(F)(F)F`, the T/C reads like this: (dose: 32.0 mg/kg/injection, schedule: Q01DX009 (ip), vehicle: Klucel (hydroxypropylcellulose) (HPC)) 97 % of control; (dose: 64.0 mg/kg/injection, schedule: Q01DX009 (ip), vehicle: Klucel (hydroxypropylcellulose) (HPC)) 101 % of control; (dose: 128.0 mg/kg/injection, schedule: Q01DX009 (ip), vehicle: Klucel (hydroxypropylcellulose) (HPC)) 101 % of control.
Turning to `Cc1ccc(S(=O)(=O)CC2CCc3ccccc3C2=O)cc1` (configuration not stated), the T/C was 107 % of control (dose: 100.0 mg/kg/injection, schedule: Q04DX002 (ip), vehicle: saline); 101 % of control (dose: 200.0 mg/kg/injection, schedule: Q04DX002 (ip), vehicle: saline); 104 % of control (dose: 400.0 mg/kg/injection, schedule: Q04DX002 (ip), vehicle: saline).
`COC(=O)C(O)CC1=CC[C@@H]2CC=C[C@H]12` (some centres not stated): the T/C by setting is: under setting [1], 104 % of control; under setting [2], 104 % of control; (dose: 200.0 mg/kg/injection, schedule: Q01DX005 (ip), vehicle: saline with Tween-80) 104 % of control.
Turning to `CC(=O)Nc1nc(C)c([N+](=O)[O-])s1`, the T/C by setting is: under setting [3], 105 % of control; under setting [4], 93 % of control; under setting [5], 100 % of control.
For the molecule `O=C(O)c1ccccc1C(=O)n1cnc2ccccc21`, the T/C runs as follows: under setting [3], 87 % of control; under setting [4], 94 % of control; under setting [5], 90 % of control.
For the molecule `O=C(Nc1ccc2[nH]c3ccccc3c2c1)c1ccccc1Cl`, the T/C runs as follows: under setting [6], 93 % of control; under setting [7], 95 % of control; under setting [8], 90 % of control.
Take `Cc1ccc(N(C)c2cc(=O)n(C)c(=O)[nH]2)cc1C`: the T/C under setting [1] is 94 % of control and the T/C under setting [2] is 103 % of control.
Consider `c1ccc2c(c1)oc1cc3c(cc12)nnc1cccn13`, for which the T/C is, setting by setting: under setting [9], 100 % of control; under setting [6], 96 % of control; under setting [7], 92 % of control; under setting [8], 86 % of control.
On to `COc1ccc2c(c1)CN(Cc1c(Cl)cccc1Cl)CO2`, for which the T/C was 98 % of control under setting [9]; 115 % of control and 97 % of control under setting [6]; 103 % of control and 92 % of control under setting [7]; 89 % of control under setting [8].
Regarding `NC(=O)c1sc2ncccc2c1N`, the T/C is 96 % of control under setting [10], 92 % of control under setting [11] and 96 % of control under setting [12].
On to `CCN(CC)C(=O)c1cccc2c1OCO2`, for which the T/C is, setting by setting: under setting [10], 94 % of control; under setting [11], 98 % of control; under setting [12], 95 % of control.
For the molecule `O=C(O)c1cc[c]([Hg][S]c2ncnc3nc[nH]c23)cc1`, the T/C is 106 % of control (dose: 1.56 mg/kg/injection, schedule: Q01DX009 (ip), vehicle: saline with Tween-80); 110 % of control and 123 % of control (dose: 3.13 mg/kg/injection, schedule: Q01DX009 (ip), vehicle: saline with Tween-80); 100 % of control (dose: 6.25 mg/kg/injection, schedule: Q01DX009 (ip), vehicle: saline with Tween-80); 100 % of control (dose: 12.5 mg/kg/injection, schedule: Q01DX009 (ip), vehicle: saline with Tween-80); 121 % of control (dose: 25.0 mg/kg/injection, schedule: Q01DX009 (ip), vehicle: Klucel (hydroxypropylcellulose) (HPC)).
Turning to `O=C(O)CSCc1cc2c3ccccc3sc2c2ccccc12`, the T/C runs as follows: (dose: 60.0 mg/kg/injection, schedule: Q01DX005 (ip), vehicle: Klucel (hydroxypropylcellulose) (HPC)) 100 % of control; (dose: 120.0 mg/kg/injection, schedule: Q01DX005 (ip), vehicle: Klucel (hydroxypropylcellulose) (HPC)) 93 % of control; (dose: 240.0 mg/kg/injection, schedule: Q01DX005 (ip), vehicle: Klucel (hydroxypropylcellulose) (HPC)) 96 % of control.
